Test [1] has as its system non-small cell lung cancer cell line H460. Briefly: In vitro human cancer cell line cytotoxicity (proliferation) assay in H460, CellTiter-Glo, 72 hours. Type of test: cell-based. The settings on record: H460 cells, DMSO condition (no AKR1C3 inhibitor), read-out: CTG H460: Avg IC50 (nM) [Assay Condition: DMSO]. The method, then: Biological Example 1. In Vitro Human Cancer Cell Line Cytotoxicity Assay
IC50 values in nanomolar reported here were derived from in vitro proliferation assay data in non-small cell lung cancer cell line H460.
(§1) Specifically, exponentially growing cells were seeded at density of 3×10^3 cells per well in 96-well plate and incubated at 37° C. in 5% CO2, 95% air and 100% relative humidity for 24 hours before adding compounds. Compounds were solubilized in 100% DMSO at 10 mM. Compounds were added to the plate using Tecan D300e® digital Dispenser. After drug addition, the plates were incubated for an additional 72 hours at 37° C. in 5% CO2, 95% air and 100% relative humidity. At the end of the incubation, cell viability was quantified with CellTiter-Glo® assay.
On the technique in general: Cellular ATP, detected with luciferase, serves as a proxy for viable cell number.

For test [2] the test system is unchanged. Briefly: H460 proliferation assay in the presence of 3 uM ASP9521 (AKR1C3 specific inhibitor). Particulars: H460 cells, CellTiter-Glo, 72 hours, in the presence of 3 uM ASP9521 added 4 hours prior to compounds; read-out: CTG H460: Avg IC50 (nM) [Assay Condition: ASP9521]. Format: cell-based, human. The method, then: as §1
To further confirm that compounds were activated by human AKR1C3, H460 proliferation assay were also performed in the presence of 3 uM […], an AKR1C3 specific inhibitor. ASP9521 were added to the plates 4 hours prior to the addition of compounds.

As for `O=[N+]([O-])c1ccc2c(c1Oc1cc(F)cc(-c3ccc(F)cn3)c1)CC[C@@H]2OP(=O)(N1CC1)N1CC1` [Example 358], the IC50 in test [1] (Homo sapiens, NCI-H460, 72 h) is less than 10 nM; in test [2] it was 1740 nM. In the case of `O=[N+]([O-])c1ccc2c(c1Oc1cccc(OC(F)(F)F)c1)CC[C@H]2OP(=O)(N1CC1)N1CC1` [Example 450], the IC50 in test [1] is less than 10 nM; in test [2], 1060 nM. On the same counts, the results for `O=C(NC1CC1)c1cc(Oc2c([N+](=O)[O-])ccc3c2CC[C@@H]3OP(=O)(N2CC2)N2CC2)ccc1F` [Example 261] are 10 to 50 nM and 5690 nM.

As for `COc1cc(Oc2c([N+](=O)[O-])ccc3c2CC[C@@H]3OP(=O)(N2CC2)N2CC2)cc(-c2ccc(F)cn2)c1` [Example 353], the IC50 is less than 10 nM in test [1] (Homo sapiens, NCI-H460, 72 h) and 1010 nM in test [2]. `O=[N+]([O-])c1ccc2c(c1Oc1ccc(-c3cccnc3)cc1)CCC2OP(=O)(N1CC1)N1CC1` (single isomer, unassigned) [Example 54]: the IC50 was less than 10 nM in test [1] and 516 nM in test [2].

With `O=[N+]([O-])c1ccc2c(c1Oc1ccc(F)c(OC3CCCC3)c1)CCC2OP(=O)(N1CC1)N1CC1` (centres unmarked) [Example 476], the IC50 is less than 10 nM in test [1] and 1090 nM in test [2].

Turning to `O=[N+]([O-])c1cc2c(cc1Oc1ccc(-c3ccc(Cl)cc3)cc1)C(OP(=O)(N1CC1)N1CC1)CC2` (centres unmarked) [Example 183], the IC50 is 10 to 50 nM in test [1] and 1840 nM in test [2]. Consider `CC(C)c1cc(Oc2c([N+](=O)[O-])ccc3c2CCC3OP(=O)(N2CC2)N2CC2)ccc1F` (centres unmarked) [Example 331], for which the values for the IC50 in test [1] and in test [2] were less than 10 nM and 1050 nM, respectively. As for `CN1Cc2cc(Oc3cc4c(cc3[N+](=O)[O-])CCC4OP(=O)(N3CC3)N3CC3)ccc2C1=O` (centres unmarked) [Example 154], the IC50 is less than 10 nM in test [1] (Homo sapiens, NCI-H460, 72 h) and 309 nM in test [2]. Consider `COc1cc(Oc2c([N+](=O)[O-])ccc3c2CC[C@@H]3OP(=O)(N2CC2)N2CC2)cc(-c2ncccn2)c1` [Example 357], for which the IC50 in test [1] (Homo sapiens, NCI-H460, 72 h) was less than 10 nM; in test [2] it was 467 nM. On the same counts, the results for `CC(OP(=O)(N1C[C@@H]1C)N1C[C@@H]1C)c1ccc([N+](=O)[O-])c(Oc2ccc(C(=O)N(C)C)cc2)c1` (some centres unmarked) [Example 213] are less than 10 nM and 1200 nM.

With `O=C(c1ccc(Oc2c([N+](=O)[O-])ccc3c2CCC3OP(=O)(N2CC2)N2CC2)cc1)N1CCOCC1` (centres unmarked) [Example 35], the IC50 in test [1] was less than 10 nM; in test [2] it was 472 nM.

Regarding `O=C1CCCCN1c1cccc(Oc2c([N+](=O)[O-])ccc3c2CCC3OP(=O)(N2CC2)N2CC2)c1` (centres unmarked) [Example 107], the IC50 in test [1] (Homo sapiens, NCI-H460, 72 h) was 10 to 50 nM; in test [2] it was 6500 nM. Turning to `O=[N+]([O-])c1cc2c(cc1Oc1ccccc1-c1ccccc1)C(OP(=O)(N1CC1)N1CC1)CC2` (centres unmarked) [Example 196], the IC50 was no less than 100 nM in test [1] (Homo sapiens, NCI-H460, 72 h) and 6370 nM in test [2]. With `O=[N+]([O-])c1ccc2c(c1Oc1ccc(F)c(-n3ccc(F)n3)c1)CC[C@H]2OP(=O)(N1CC1)N1CC1` [Example 443], the IC50 in test [1] (Homo sapiens, NCI-H460, 72 h) was less than 10 nM; in test [2], 571 nM. Turning to `CN1CCc2ccc(Oc3cc4c(cc3[N+](=O)[O-])CCC4OP(=O)(N3CC3)N3CC3)cc2C1=O` (centres unmarked) [Example 167], the IC50 in test [1] is 10 to 50 nM; in test [2] it was 3150 nM. For the molecule `O=[N+]([O-])c1ccc2c(c1Oc1ccc(F)c(S(=O)(=O)C3CC3)c1)CC[C@@H]2OP(=O)(N1CC1)N1CC1` [Example 513], the IC50 in test [1] (Homo sapiens, NCI-H460, 72 h) was less than 10 nM; in test [2], 682 nM. On to `O=[N+]([O-])c1ccc2c(c1Oc1ccc(OC3COC3)cc1)CC[C@H]2OP(=O)(N1CC1)N1CC1` [Example 492], for which the IC50 in test [1] (Homo sapiens, NCI-H460, 72 h) was less than 10 nM; in test [2], 778 nM.

`O=C1CCCCN1c1cccc(Oc2c([N+](=O)[O-])ccc3c2CCC3OP(=O)(N2CC2)N2CC2)c1` (centres unmarked) [Example 410]: the IC50 is 10 to 50 nM in test [1] and 4660 nM in test [2]. On to `Cn1cc(-c2ccc(Oc3c([N+](=O)[O-])ccc4c3CC[C@H]4OP(=O)(N3CC3)N3CC3)cc2)cn1` [Example 273], for which the IC50 in test [1] was less than 10 nM; in test [2], 1400 nM. As to `CN(C)C(=O)c1cccc(Oc2c([N+](=O)[O-])ccc3c2OCCC3OP(=O)(N2CC2)N2CC2)c1` (centres unmarked) [Example 129], the figures for the IC50 in test [1] and in test [2] were 10 to 50 nM and 982 nM, respectively.

Regarding `O=[N+]([O-])c1cc2c(cc1Oc1cccc(-c3ccccc3)c1)C(OP(=O)(N1CC1)N1CC1)CC2` (single isomer, unassigned) [Example 168], the IC50 in test [1] (Homo sapiens, NCI-H460, 72 h) was less than 10 nM; in test [2], 755 nM.

With `CC(C)Oc1cccc(Oc2cc3cc(COP(=O)(N4CC4)N4CC4)oc3cc2[N+](=O)[O-])c1` [Example 547], the IC50 in test [1] was less than 10 nM; in test [2], 1260 nM. On the same counts, the results for `O=[N+]([O-])c1ccc2c(c1Oc1ccc(-c3cnn(C4CC4)c3)cc1)CCC2OP(=O)(N1CC1)N1CC1` (centres unmarked) [Example 79] are 10 to 50 nM and 1610 nM. As to `CNC(=O)c1ccc(Oc2cc3c(cc2[N+](=O)[O-])CCC3OP(=O)(N2CC2)N2CC2)cc1` (single isomer, unassigned) [Example 151], the IC50 in test [1] was less than 10 nM; in test [2], 306 nM.

With `CC(OP(=O)(N1CC1)N1CC1)c1ccc([N+](=O)[O-])c(COc2ccncc2)c1` (centres unmarked) [Example 5], the IC50 in test [1] (Homo sapiens, NCI-H460, 72 h) is no less than 100 nM; in test [2] it was greater than 10000 nM. For `O=[N+]([O-])c1ccc2c(c1Oc1ccc(-c3ccc(F)cn3)cc1)CC[C@H]2OP(=O)(N1CC1)N1CC1` [Example 278], the IC50 in test [1] is less than 10 nM; in test [2], 1560 nM. In the case of `CC(C)COc1cc(Oc2c([N+](=O)[O-])ccc3c2CC[C@@H]3OP(=O)(N2CC2)N2CC2)ccc1F` [Example 498], the IC50 was less than 10 nM in test [1] (Homo sapiens, NCI-H460, 72 h) and 899 nM in test [2].

Regarding `O=[N+]([O-])c1ccc2c(c1Oc1ccccc1)CCC2OP(=O)(N1CC1)N1CC1` (centres unmarked) [Example 16, 5-nitro-4-phenoxy-2,3-dihydro-1H-inden-1-yl di(aziridin-1-yl)phosphinate], the IC50 in test [1] (Homo sapiens, NCI-H460, 72 h) was 10 to 50 nM; in test [2], 261 nM. Taken in the same sequence, the figures for `O=[N+]([O-])c1ccc2c(c1Oc1cc(O)cc(OCC3CC3)c1)CC[C@@H]2OP(=O)(N1CC1)N1CC1` [Example 446, (S)-4-(3-(cyclopropylmethoxy)-5-hydroxyphenoxy)-5-nitro-2,3-dihydro-1H-inden-1-yl di(aziridin-1-yl)phosphinate] were less than 10 nM and 1210 nM. As to `O=[N+]([O-])c1ccc2c(c1Oc1cccc(OCC(F)(F)F)c1)CC[C@@H]2OP(=O)(N1CC1)N1CC1` [Example 474], the IC50 in test [1] was less than 10 nM; in test [2], 918 nM. On to `O=C1CCCN1c1cccc(Oc2c([N+](=O)[O-])ccc3c2CCC3OP(=O)(N2CC2)N2CC2)c1` (centres unmarked) [Example 413], for which the IC50 in test [2] came to 1180 nM. For `O=C(c1cccc(Oc2c([N+](=O)[O-])ccc3c2CCC3OP(=O)(N2CC2)N2CC2)c1)N1CCCC1` (centres unmarked) [Example 240], the IC50 in test [2] was determined as 1150 nM. The same measure, in the same setting: to `Cc1noc(-c2cccc(Oc3c([N+](=O)[O-])ccc4c3CCC4OP(=O)(N3CC3)N3CC3)c2)n1` (centres unmarked) [Example 304] belongs 2130 nM.

As to `Cn1cc(-c2ccc(Oc3cc4c(cc3[N+](=O)[O-])CCC4OP(=O)(N3CC3)N3CC3)cc2)cn1` (single isomer, unassigned) [Example 521], the IC50 in test [2] stood at 1950 nM. As for `O=C(c1cccc(Oc2c([N+](=O)[O-])ccc3c2CCC3OP(=O)(N2CC2)N2CC2)c1)N1CCC(F)(F)CC1` (centres unmarked) [Example 244], in test [2], the IC50 is 834 nM.

For `O=[N+]([O-])c1ccc2c(c1Oc1cccc(-c3ncccn3)c1)CCC2OP(=O)(N1CC1)N1CC1` (centres unmarked) [Example 301], the IC50 in test [2] is 3730 nM. Take `O=C1COCCN1c1cccc(Oc2c([N+](=O)[O-])ccc3c2CCC3OP(=O)(N2CC2)N2CC2)c1` (racemic) [Example 405]: the IC50 in test [2] is 871 nM.

Turning to `O=C(c1cccc(Oc2c([N+](=O)[O-])ccc3c2CCC3OP(=O)(N2CC2)N2CC2)c1)N1CCC(F)(F)C1` (centres unmarked) [Example 242], the IC50 in test [2] is 1270 nM. Consider `O=C1OCCN1c1cccc(Oc2c([N+](=O)[O-])ccc3c2CCC3OP(=O)(N2CC2)N2CC2)c1` (centres unmarked) [Example 407], for which, in test [2], the IC50 came to 380 nM.

Consider `O=C1CCCCN1c1cccc(Oc2c([N+](=O)[O-])ccc3c2CCC3OP(=O)(N2CC2)N2CC2)c1` (racemic) [Example 404], for which, in test [2], the IC50 worked out at 1020 nM.

`O=C(c1cccc(Oc2c([N+](=O)[O-])ccc3c2CCC3OP(=O)(N2CC2)N2CC2)c1)N1CCC1` (centres unmarked) [Example 246]: in test [2], the IC50 is 522 nM. For `O=C(c1cccc(Oc2c([N+](=O)[O-])ccc3c2CCC3OP(=O)(N2CC2)N2CC2)c1)N1CC(F)(F)C1` (centres unmarked) [Example 235], in test [2], the IC50 was 717 nM. Still for that read-out and setting: the same measure for `O=c1ccccn1-c1cccc(Oc2c([N+](=O)[O-])ccc3c2CCC3OP(=O)(N2CC2)N2CC2)c1` (racemic) [Example 406]: 1320 nM. With `O=C1COCCN1c1cccc(Oc2c([N+](=O)[O-])ccc3c2CCC3OP(=O)(N2CC2)N2CC2)c1` (centres unmarked) [Example 411], the IC50 in test [1] lay in the range of 10 to 50 nM. On to `O=C(c1cccc(Oc2c([N+](=O)[O-])ccc3c2CCC3OP(=O)(N2CC2)N2CC2)c1)N1CCC(F)(F)C1` (centres unmarked) [Example 239], for which the IC50 in test [2] is 1060 nM.

The term IC50 denotes the midpoint of a concentration-inhibition curve.
